Experimental data taken from patent US11952346B2, “Modulators of mas-related G-protein receptor X2 and related products and methods” (Escient Pharmaceuticals, Inc., priority 2020, dated 2024).

Target: T1, human MRGPRX2 (Homo sapiens, UniProt Q96LB1)
T1 construct: expressed in transfected cells
T1 sequence (Q96LB1 1-330): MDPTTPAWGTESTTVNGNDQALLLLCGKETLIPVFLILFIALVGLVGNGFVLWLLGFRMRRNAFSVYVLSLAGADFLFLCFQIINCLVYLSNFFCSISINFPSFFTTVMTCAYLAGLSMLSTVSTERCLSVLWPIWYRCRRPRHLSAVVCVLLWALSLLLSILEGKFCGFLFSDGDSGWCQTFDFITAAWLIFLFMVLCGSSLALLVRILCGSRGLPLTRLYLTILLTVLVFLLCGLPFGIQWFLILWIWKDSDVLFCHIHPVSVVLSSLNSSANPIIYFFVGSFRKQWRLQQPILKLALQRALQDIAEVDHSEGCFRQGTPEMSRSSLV
Test: MRGPRX2 antagonist activity, IP-One HTRF assay in CHO cells expressing human MRGPRX2 versus Cortistatin-14
Format: cell-based
Details: CHO cells stably expressing human MRGPRX2; versus 0.3 uM Cortistatin-14 agonist; IP-1 HTRF readout; read-out: MRGPR2 Antagonist Activity
Procedure: CHO cells stably transfected to express human MRGPRX2 were maintained in an incubator at 37° C. with 5% CO2 and grown in F12 (HAM) media with 10% fetal bovine serum (FBS), 1% Glutamax, 1% penicillin/streptomycin, 800 μg/mL Geneticin (G418), and 300 μg/mL Hygromycin B. Cells were plated in a 384-well assay plate at 20,000 cells per well in 12 μL of Opti-MEM and kept in an incubator overnight. On the day of the assay, compounds solubilized at 10 mM in DMSO were added as a 10-point curve (30 uM final top concentration with 1:3 serial dilutions) using a Tecan D300E digital dispenser. Agonists were diluted in assay buffer (final concentrations of 5.7 mM Tris-HCl, 43 mM NaCl, 50 mM LiCI, pH=8) and 2 μL of the agonist Cortistatin-14 (CPC Scientific, catalog CORT-002) are added to each well. Final concentrations of agonists were […] Cortistatin-14. Final concentrations of DMSO were kept consistent across the plate. Plates were incubated in the dark for 1 hr at 37° C. and then for 1 hr at room temperature. IP-1 standards and HTRF detection reagents were added according to the IP-One—Gq Kit purchased from Cisbio (part number 621PAPEJ) and incubated in the dark for 1 hr at room temperature. The plate was read on a Molecular Devices SpectraMax iD5 plate reader. The HTRF ratio was calculated from the raw data and graphed using GraphPad Prism to calculate an IC50 value for each compound.
The activity ranges are denoted as follows: “+++++” denotes antagonist activity <100 nM; “++++” denotes antagonist activity between 100 and 500 nM; “+++” denotes activity between 501 and 1000 nM; “++” denotes activity between 1001 and 2500 nM; and “+” denotes activity >2500 nM.

IC50 | SMILES
> 2500 nM | O=C(N[C@H]1CC[C@@H](Nc2cc(C(F)(F)F)cc(C(F)(F)F)c2)CC1)c1ccccc1 [Example 13, N-((1S,4S)-4-((3,5-bis(trifluoromethyl)phenyl)amino)cyclohexyl)benzamide]
> 2500 nM | COc1ccc(C(=O)N[C@H]2CC[C@@H](Nc3cc(C(F)(F)F)cc(C(F)(F)F)c3)CC2)cc1 [Example 14, N-((1S,4S)-4-((3,5-bis(trifluoromethyl)phenyl)amino)cyclohexyl)-4-methoxybenzamide]
100 to 500 nM | CN(C)c1cccc(C(=O)N[C@H]2CC[C@@H](Nc3cc(C(F)(F)F)nc(C(F)(F)F)c3)CC2)c1 [Example 15, N-(1S,4S)-[4-[[2,6-bis(trifluoromethyl)-4-pyridyl]amino]cyclohexyl]-3-(dimethylamino)benzamide]
501 to 1000 nM | COc1ccc(C(=O)N[C@H]2CC[C@@H](Nc3cc(C(F)(F)F)nc(N(C)C)n3)CC2)cc1 [Example 16, N-(1S,4S)-[4-[[2-(dimethylamino)-6-(trifluoromethyl)pyrimidin-4-yl]amino]cyclohexyl]-4-methoxy-benzamide]
< 100 nM | N#Cc1ccc(N[C@H]2CC[C@@H](NC(=O)c3cnn(CC(F)(F)F)c3)CC2)cc1C(F)(F)F [Example 17, N-((1s,4s)-4-((4-cyano-3-(trifluoromethyl)phenyl)amino)cyclohexyl)-1-(2,2,2-trifluoroethyl)-1H-pyrazole-4-carboxamide]
> 2500 nM | COc1ccc(C(=O)N[C@@H]2CCC[C@H](Nc3cc(C(F)(F)F)nc(C(F)(F)F)c3)C2)cc1 [example 1, N-((1R,3S)-3-((2,6-bis(trifluoromethyl)pyridin-4-yl)amino)cyclohexyl)-4-methoxybenzamide]
501 to 1000 nM | O=C(N[C@H]1CC[C@@H](Nc2cc(C(F)(F)F)nc(C(F)(F)F)c2)CC1)c1ccccc1 [example 3, N-((1S,4S)-4-((2,6-bis(trifluoromethyl)pyridin-4-yl)amino)cyclohexyl)benzamide]
